Laboratory results taken from article PMC11435058, “Synthesis of New Thiazole-Privileged Chalcones as Tubulin Polymerization Inhibitors with Potential Anticancer Activities” (Pharmaceuticals, 2024).
Where two headings read alike, the source gives them in different places.

Tests used:
MDA-MB-468 = test: NCI-60 anticancer screen (SRB; single dose and five doses); type: cell-based, human; settings: Homo sapiens, 48 h; MDA-MB-468; dose of 10 μM; read-out: Growth Percentage
How it was run: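 Readout was sulforhodamine B staining, read spectrophotometrically as percent growth against untreated controls. This followed a 48 h exposure to one 10μM dose across roughly 60 human tumor lines of the NCI screen.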

[1] = tested on: 60 human tumor cell lines panel; test: NCI-60 anticancer screen, whole panel (means and ranges over the cell lines); type: cell-based; settings: Homo sapiens, 48 h
SNB-19 = test: cells; settings: Homo sapiens, SNB-19, 48 h, read-out: Growth Percentage
HL-60(TB) = test: NCI-60 anticancer screen (SRB; single dose and five doses); settings: Homo sapiens, HL-60, 48 h, read-out: Growth Percentage
MOLT-4 = test: as above; settings: Homo sapiens, MOLT-4, 48 h, read-out: Growth Percentage
NCI-H522 = test: as above; settings: Homo sapiens, NCI-H522, 48 h, read-out: Growth Percentage
SW-620 = test: as above; settings: Homo sapiens, SW-620, 48 h, read-out: Growth Percentage
SF-268 = test: as above; settings: Homo sapiens, SF-268, 48 h, read-out: Growth Percentage
SF-539 = test: as above; settings: Homo sapiens, SF-539, 48 h, read-out: Growth Percentage
U251 = test: as above; settings: Homo sapiens, U-251, 48 h, read-out: Growth Percentage
MALME-3M = test: as above; settings: Homo sapiens, 48 h, read-out: Growth Percentage
M14 = test: as above; settings: Homo sapiens, M14, 48 h, read-out: Growth Percentage
SK-MEL-2 = test: as above; settings: Homo sapiens, SK-MEL-2, 48 h, read-out: Growth Percentage
SK-MEL-5 = test: as above; settings: Homo sapiens, SK-MEL-5, 48 h, read-out: Growth Percentage
UACC-257 = test: as above; settings: Homo sapiens, UACC-257, 48 h, read-out: Growth Percentage
UACC-62 = test: as above; settings: Homo sapiens, UACC-62, 48 h, read-out: Growth Percentage
IGROV1 = test: as above; settings: Homo sapiens, IGROV-1, 48 h, read-out: Growth Percentage
OVCAR-8 = test: as above; settings: Homo sapiens, OVCAR-8, 48 h, read-out: Growth Percentage
SK-OV-3 = test: as above; settings: Homo sapiens, SK-OV-3, 48 h, read-out: Growth Percentage
CAKI-1 = test: as above; settings: Homo sapiens, CAKI-1, 48 h, read-out: Growth Percentage
RXF 393 = test: as above; settings: Homo sapiens, RXF 393, 48 h, read-out: Growth Percentage
UO-31 = test: as above; settings: Homo sapiens, UO-31, 48 h, read-out: Growth Percentage
MCF7 = test: as above; settings: Homo sapiens, MCF7, 48 h, read-out: Growth Percentage
MDA-MB-231/ATCC = test: as above; settings: Homo sapiens, MDA-MB-231, 48 h, read-out: Growth Percentage
HS 578T = test: as above; settings: Homo sapiens, 48 h, read-out: Growth Percentage

Cc1[nH]c(=S)sc1C(=O)/C=C/c1ccc(N(C)C)cc1 [2k, (E)-3-(4-(Dimethylamino)Phenyl)-1-(4-Methyl-2-Thioxo-2,3-Dihydrothiazol-5-yl)Prop-2-En-1-One] gave an activity at 10 µM (MDA-MB-468) of 35.4%, an activity at 10 µM ([1]; read-out: growth percentages against most of the tested cells (lowest to highest)) of 35.4 to 130% and an activity at 10 µM ([1]; mean over the tested cell lines, dose of 10 μM, read-out: Mean growth percentage) of 77.7%. The activity at 10 µM (SNB-19) was 71.2%, the activity at 10 µM (HL-60(TB)) was 87% and the activity at 10 µM (MOLT-4) was 62.1%. It also gave an activity at 10 µM (NCI-H522) of 58.9%, an activity at 10 µM (SW-620) of 89.9% and an activity at 10 µM (SF-268) of 99.3%. It also gave an activity at 10 µM (SF-539) of 88.7%, an activity at 10 µM (U251) of 67.1% and an activity at 10 µM (MALME-3M) of 79.4%. The activity at 10 µM (M14) was 83.2%, the activity at 10 µM (SK-MEL-2) was 88.9% and the activity at 10 µM (SK-MEL-5) was 51.3%. The activity at 10 µM (UACC-257) was 64.1%, the activity at 10 µM (UACC-62) was 58.7% and the activity at 10 µM (IGROV1) was 82.3%. The activity at 10 µM (OVCAR-8) was 83.4%, the activity at 10 µM (SK-OV-3) was 92.6% and the activity at 10 µM (CAKI-1) was 68.6%. The activity at 10 µM (RXF 393) was 90.8%, the activity at 10 µM (UO-31) was 48.3% and the activity at 10 µM (MCF7) was 60%. The activity at 10 µM (MDA-MB-231/ATCC) was 90.3% and the activity at 10 µM (HS 578T) was 118%.
